The IC50 is the concentration at which inhibition is half-maximal. The low end stands for greater potency in that assay, the high end for weaker potency in that assay.

This passage reports IC50 results from US9340577B2, “HLA binding motifs and peptides and their uses” (priority 1992, dated 2016).

Some targets named below: HLA-A1 (A*0101) (Homo sapiens, UniProt P04439, A114D/A174V/A182V/D101N/D185E/E176A/E190D/L180R/Q94H/R68K/S129P/T187R/V100A/V91M/W191G); A*2601 (Homo sapiens, UniProt P04439, A114D/A173T/A270S/D101N/D185E/E277Q/E87N/F33Y/G231S/I121R/I218V/K168Q/L180W/L300P/L318F/P208A/P217A/Q86R/Q94H/R138Q/S129P/T187R/T323A/T345S/V100A/V358M); A*2902 (Homo sapiens, UniProt P04439, A270S/D101N/D185E/E176V/E277Q/E87Q/F33T/G231S/H175R/I121M/I218V/I322F/K168Q/L300P/L318F/M331R/P208A/P217A/Q86L/T323A/T345S/V100A/V358M); A*3002 (Homo sapiens, UniProt P04439, D101N/D140H/D185E/E176R/F33S/G80R/H175R/K168Q/Q94H/R138E/R41S/V100E).

What all share (experiment): biochemical
Format in all cases: binding

No end group written: not given here.

Chain of A*3002 (P04439 whole entry, looked up, the tested form may be a part, stated change not applied): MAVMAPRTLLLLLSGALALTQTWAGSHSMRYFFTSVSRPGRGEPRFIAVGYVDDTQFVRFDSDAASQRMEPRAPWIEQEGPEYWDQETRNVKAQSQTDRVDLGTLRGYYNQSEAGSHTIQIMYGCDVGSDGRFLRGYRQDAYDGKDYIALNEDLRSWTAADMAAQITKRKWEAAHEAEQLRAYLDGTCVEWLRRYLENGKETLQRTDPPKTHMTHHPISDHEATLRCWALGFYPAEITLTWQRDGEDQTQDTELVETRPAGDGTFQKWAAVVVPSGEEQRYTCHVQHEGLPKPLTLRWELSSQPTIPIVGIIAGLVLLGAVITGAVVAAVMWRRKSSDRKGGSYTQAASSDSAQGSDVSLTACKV

For the sequence ATDVSHRGLY [Peptide 1593.10], the IC50 against HLA-A1 (A*0101) worked out at 26 nM; against A*2601, 18 nM; against A*2902, 1620 nM; against A*3002, 15 nM.

In the case of FTSMPNPEGRY [Peptide 9012.0174], the IC50 is 10 nM against HLA-A1 (A*0101), 2.8 nM against A*2601, 170 nM on A*2902 and 104 nM against A*3002.

With ETDEEITGYLY [Peptide 9012.0180], the IC50 against HLA-A1 (A*0101) was 6.4 nM; at A*2601, 27 nM; at A*2902 it was 277 nM.

Regarding VTQGNLELTY [Peptide 9012.0147], the IC50 at HLA-A1 (A*0101) was 90 nM; against A*2601, 6720 nM; against A*3002, 23 nM.

Take KTDILTVTY [Peptide 1593.11]: the IC50 against A*2601 is over 20000 nM; on A*2902 it was over 20000 nM; at A*3002, 922 nM.

Consider SMDNPEGRY [Peptide 9012.0122], for which the IC50 at HLA-A1 (A*0101) worked out at 141 nM; against A*2601 it was 535 nM; at A*2902, 1440 nM; on A*3002, 11 nM.

For the sequence VQEKILDLY [Peptide 86.0149], the IC50 against HLA-A1 (A*0101) was 1440 nM; on A*2601, 8180 nM; against A*2902, 17000 nM; on A*3002, 193 nM.

Take RTTQLFEDNY [Peptide 9012.0149]: the IC50 at HLA-A1 (A*0101) is 2390 nM; at A*2601, over 20000 nM; against A*2902 it was 11200 nM; at A*3002 it was 7.4 nM.

For ATCVSHRGLY [Peptide 1580.22], the figures for the IC50 on A*2601 and on A*2902 were 492 nM and 4210 nM, respectively.

As for KTGILTVTY [Peptide 86.0146], the IC50 is 855 nM against HLA-A1 (A*0101), over 20000 nM against A*2601, 3390 nM on A*2902 and 20 nM against A*3002.

IVEGQVDYY [Peptide 1580.29]: the IC50 against HLA-A1 (A*0101) is 188 nM; at A*2601 it was over 20000 nM; at A*2902, over 20000 nM.

For the sequence QAEPDTSNY [Peptide 1549.03], the IC50 on HLA-A1 (A*0101) was 319 nM; on A*2601, over 20000 nM; against A*2902, over 20000 nM; against A*3002, 9930 nM.

On to LSDALEIPY [Peptide 1549.41], for which the IC50 against HLA-A1 (A*0101) stood at 12 nM; on A*2601, 629 nM; against A*2902 it was 1600 nM; on A*3002, 8690 nM.

For the sequence VQDKILDIY [Peptide 1580.32], the IC50 at A*2601 is over 20000 nM; against A*2902 it was over 20000 nM; on A*3002, 3810 nM.

Take CQDKILTHY [Peptide 86.0141]: the IC50 is 914 nM at HLA-A1 (A*0101), 8900 nM at A*2601 and 188 nM at A*3002.

As for WTSTDNKNY [Peptide 1580.31], the IC50 at HLA-A1 (A*0101) is 163 nM; against A*2601, 4830 nM; against A*2902 it was over 20000 nM; at A*3002, 7310 nM.

As to VTDCPYNY [Peptide 9012.0106], the IC50 against HLA-A1 (A*0101) was 79 nM; against A*2601 it was over 20000 nM; against A*2902 it was 1450 nM; on A*3002, 1630 nM.

VTEFRWYRY [Peptide 1549.42]: the IC50 against HLA-A1 (A*0101) is 26 nM; on A*2601, 3150 nM; at A*2902, 256 nM; at A*3002 it was 92 nM.

Take VFADLRIVY [Peptide 1549.09]: the IC50 against HLA-A1 (A*0101) is over 20000 nM; at A*2601, 1800 nM; against A*2902, 2.9 nM; at A*3002, 21 nM.

For the sequence CTSASNPSPQY [Peptide 9012.0170], the IC50 at HLA-A1 (A*0101) is 535 nM; on A*2601, 549 nM; on A*2902, over 20000 nM; on A*3002, 484 nM.

Take LQDKILDHY [Peptide 1580.27]: the IC50 at HLA-A1 (A*0101) is 66 nM; against A*2601, 7410 nM; on A*2902, over 20000 nM; against A*3002, 926 nM.

In the case of CTDKILEHY [Peptide 1593.14], the IC50 at HLA-A1 (A*0101) was 110 nM; at A*2601 it was over 20000 nM; on A*2902, over 20000 nM.

With NTGILTVTY [Peptide 86.0152], the IC50 against A*2601 worked out at 3150 nM; against A*2902, 1400 nM; against A*3002, 8720 nM.

For the sequence ISDSYTYY [Peptide 9012.0102], the half-inhibitory concentration (IC50) amounted to 8550 nM at A*2601, 1990 nM on A*2902 and 9110 nM at A*3002.

For ASDVTACPYNY [Peptide 9012.0176], the IC50 against HLA-A1 (A*0101) was determined as 18 nM; against A*2601, 5830 nM; against A*2902, 2440 nM; against A*3002 it was 205 nM.

TTSPSYTY [Peptide 9012.0100]: the results for the IC50 on A*2601, on A*2902 and at A*3002 were 3440 nM, 213 nM and 323 nM, respectively.

Regarding QVDYYGLYY [Peptide 1580.19], the IC50 against HLA-A1 (A*0101) was determined as 3.4 nM; against A*2601, 777 nM; against A*2902 it was 69 nM; against A*3002, 1150 nM.

As to GTDQATPGPAY [Peptide 9012.0160], the IC50 on A*2601 worked out at 3850 nM; against A*3002, 234 nM.

VSEFRWYRY [Peptide 1549.02]: the results for the IC50 against HLA-A1 (A*0101), at A*2601 and on A*2902 were 33 nM, over 20000 nM and 1520 nM, respectively.

Take DSDQILVGY [Peptide 1593.12]: the IC50 on A*2601, on A*2902 and at A*3002 was over 20000 nM each time.

As for VTDSRNTKY [Peptide 1580.30], the IC50 was 25 nM at HLA-A1 (A*0101), over 20000 nM at A*2601 and over 20000 nM against A*2902.

Regarding LQDKIIDHY [Peptide 1580.21], the results for the IC50 against A*2601, against A*2902 and on A*3002 were over 20000 nM, over 20000 nM and 2770 nM, respectively.

On to TTSPLNTSY [Peptide 9012.0116], for which the figures for the IC50 on A*2601 and on A*3002 were 2.6 nM and 12 nM, respectively.

Turning to ITDNNNGTY [Peptide 9012.0120], the IC50 worked out at 32 nM against HLA-A1 (A*0101), 460 nM on A*2601, 15600 nM against A*2902 and 21 nM against A*3002.

As to QTEPDTSNY [Peptide 1549.44], the results for the IC50 against A*2601 and against A*2902 were 4980 nM and over 20000 nM, respectively.

Consider TIEKLTNTGLY [Peptide 1589.45], for which the IC50 was 78 nM against HLA-A1 (A*0101), 12 nM on A*2601, 15100 nM on A*2902 and 220 nM against A*3002.

Consider YSDVRKYRY [Peptide 1549.49], for which the half-inhibitory concentration (IC50) against HLA-A1 (A*0101) was 18 nM; against A*2601 it was over 20000 nM; against A*2902, 209 nM; on A*3002, 275 nM.

KSAIVTLTY [Peptide 1580.20]: the values for the IC50 against HLA-A1 (A*0101), against A*2601 and on A*3002 were 9.2 nM, over 20000 nM and 5.7 nM, respectively.

For ATTDLTIVY [Peptide 1549.51], the IC50 against A*2601 was 163 nM; at A*3002, 109 nM.

As for LSSALEIPY [Peptide 1549.01], the half-inhibitory concentration (IC50) is 25 nM on HLA-A1 (A*0101), 4110 nM against A*2601 and 83 nM against A*3002.

For LTDKILDHY [Peptide 1593.16], the IC50 against HLA-A1 (A*0101) was determined as 3.1 nM; at A*2601, 804 nM; on A*2902 it was 4420 nM.

Consider ISDYRHYCY [Peptide 1571.26], for which the IC50 is 9.4 nM against HLA-A1 (A*0101), over 20000 nM against A*2601 and 9.9 nM at A*2902.

In the case of TSDYYIVTY [Peptide 1549.48], the concentration for half-maximal inhibition (IC50) against HLA-A1 (A*0101) amounted to 11 nM; against A*2601, 4110 nM; at A*2902 it was 11900 nM; against A*3002 it was 2200 nM.

As for DSVQILVGY [Peptide 86.0147], the IC50 at HLA-A1 (A*0101) is 1930 nM; at A*2601, 2.8 nM.

Take DSVSSTCRY [Peptide 86.0156]: the half-maximal inhibitory concentration (IC50) at HLA-A1 (A*0101) was 3060 nM; against A*2601, 12 nM; at A*2902, over 20000 nM; on A*3002, 994 nM.

In the case of VTADLRIVY [Peptide 1549.50], the half-inhibitory concentration (IC50) on HLA-A1 (A*0101) came out at 1520 nM; against A*2601, 121 nM; against A*2902, 228 nM; against A*3002 it was 50 nM.

Regarding EVDYVGLYY [Peptide 1580.33], the IC50 was 3.6 nM at HLA-A1 (A*0101), 161 nM at A*2601, 4.5 nM on A*2902 and over 20000 nM against A*3002.

As to TTEPEAQNTTY [Peptide 9012.0166], the results for the IC50 on HLA-A1 (A*0101), at A*2601 and at A*2902 were 2.1 nM, 530 nM and 1330 nM, respectively.

Consider HTASNPPAQY [Peptide 9012.0142], for which the IC50 is 0.54 nM on A*2601, 21 nM against A*2902 and 1.8 nM at A*3002.

Consider LTDKIIDHY [Peptide 1593.09], for which the figures for the IC50 on A*2601, at A*2902 and against A*3002 were over 20000 nM, over 20000 nM and 6800 nM, respectively.

Consider LTQRNPQLCY [Peptide 9012.0151], for which the figures for the IC50 against HLA-A1 (A*0101), on A*2601 and on A*3002 were 6.9 nM, 21 nM and 7.1 nM, respectively.

STDLRDHIDY [Peptide 1580.18]: the 50% inhibitory concentration (IC50) against HLA-A1 (A*0101) is 25 nM; on A*2601, 9580 nM; on A*2902 it was over 20000 nM.

With MTETLNNTEY [Peptide 1593.15], the IC50 against HLA-A1 (A*0101) was found to be 77 nM; against A*2601, 1620 nM; against A*2902 it was 471 nM.

Turning to LTSALEIPY [Peptide 1549.40], the half-maximal inhibitory concentration (IC50) at HLA-A1 (A*0101) stood at 57 nM; against A*2601, 358 nM; at A*3002, 161 nM.
